The source of these data is article PMC11881437 (Molecular Medicine, 2025).

Series [1] has as its system CT26 cell induced solid tumor. Nature of the series: CT26 syngeneic colorectal tumor model. It is filed as in vivo, BALB/c mice. The settings on record: for tumor volume: 10 days, Orientin 5 mg/kg b.w/day i.v., 5FU 5 mg/kg b.w i.v. alternate day; for tumor volume / survival (Kaplan Meier): vs control; for tumor tissue histopathology: H&E; for number of blood vessels in tumor tissue: H&E sections; for CD44+/CD133+ cells in tumor tissue / HIF1α and VEGFA expression in tumor: immunofluorescence; for survival (Kaplan Meier): tumor bearing mice. The procedure:
To set up therapeutic in vivo model, CT26 cells (2 × 10^6 cells/animal), syngeneic to BALB/c mice were injected subcutaneously to the right hind limb of the each animal. Palpable tumor was formed after 10 days. […] Six mice from each group were sacrificed on day 11 and the others were left for performing survivability assay using Kaplan–Meier method (Hajra et al. [2018a]).
(§1) Various organs and solid tumors collected after sacrificing the mice were embedded into paraffin after 10% neutral buffered formalin fixation. 4 μm sections were prepared and used for histopathological study. Standard Hematoxylin and Eosin (H&E) staining protocol was used and sections were visualized under light microscope (DM 1000, Leica, Germany) (Hajra et al. [2018a]).
Immunofluorescence assay was carried out as described previously (Shimizu et al. [2023]). Tissue sections were blocked with 3% BSA and incubated with primary antibodies like HIF1α, VEGFA, CD44 (Thermo Fisher Scientific, USA) and CD133 (Abcam, USA) at room temperature for 2 h. Alexa fluor 488 and Alexa fluor 594 tagged secondary (Thermo Fisher Scientific, USA) antibodies were added to all the tissue sections for 1 h followed by DAPI staining and images were visualized under fluorescence microscope (Olympus BX53, Japan).

Another series deals with OCT4, SOX2 and NANOG. As to the kind of experiment: Real time PCR of stemness factors in sorted CD44+/CD133+ cells. It is filed as cell-based, human. The following applies: 24 h. The source says:
CD44^+/CD133^+ cells were isolated using MACS LS column (Miltenyi Biotec, USA) after leveled with CD44 and CD133 antibody conjugated with microbeads (Miltenyi Biotec, USA) by following manufacture’s protocol and subjected to further analysis. Cells expressing both CD44 and CD133 were isolated using magnetic cell sorter (MACS) (Guerriero et al. [2017]).
Total RNA was extracted from sorted CD44^+/CD133^+ cell population using TRIZOL (Thermo Fisher Scientific, USA) as described in manufacturer’s protocol. cDNAs were synthesized from RNA templates by using cDNA isolation kit (Bio-Rad, USA) and target genes like OCT4, SOX2 and NANOG were amplified by using real time PCR kit (Bio-Rad, USA) following manufacturer’s instructions by Roche LightCycler® 96 System (Switzerland). Glyceraldehyde-3-phosphate dehydrogenase (GAPDH) gene expression was used to normalize the expression of the target genes.

In another series the test system is VEGFA. As to the kind of experiment: ELISA of VEGFA secreted into conditioned medium of CES. The format is cell-based, human. The procedure: HCT116 CRC cells were grown in ultra-low attachment plate in 3dGROTM Spheroid Medium (Sigma-Aldrich, USA) for 7 days. Spheroids enriched with CSCs were considered as CSC enriched spheres (CESs) or commonly referred as tumorospheres. After 7 days, tumorospheres were subjected to different treatments for 24 h, as per experimental protocol. Media of tumorospheres of all the treatment groups were collected, centrifuged to remove the cell debris and suspended spheres, supernatants were collected and vacuum concentrated. These supernatants were referred as conditioned medium (CM) and were stored at - 20 °C until use. Concentration of the secreted VEGFA was measured using the ELISA kit according to the manufacturer's instruction ([…] BioSystems, India) in CM of CESs as well as in the media of transfected and non-transfected HCT116.

Series [2] is described as follows: Serum cytotoxicity markers (ALT, AST, ALP, BUN, creatinine). It is filed as in vivo. The settings on record: BALB/c mice, 10 days, mean ± SD, n = 6. The protocol: (§2) To determine the toxicity of only Orientin treatment in various doses, the mice were divided into five groups. Each group contained six animals (n = 6). Each animal of the vehicle control group (VC) was left untreated, while, mice of other four groups were administered Orientin intravenously with 1 mg/kg b.w, 3 mg/kg b.w, 5 mg/kg b.w and 10 mg/kg b.w dosage respectively for 28 days. […] All the treatments were continued for 10 days. On day 11 all the mice were sacrificed and different parameters were studied.
Blood samples were collected from the retro-orbital venous plexus of mice for quantitative analysis of alanine aminotransferase (ALT), aspartate aminotransferase (AST), alkaline phosphatase (ALP), creatinine and blood urea nitrogen (BUN) in serum following kit protocol (Sigma Aldrich, USA). Optical densities were determined by using a spectrophotometer (Infinite® 200 PRO, TECAN, Switzerland).

In another series the test system is HIF1α, VEGFA. As to the kind of experiment: Western blot and immunocytochemistry in HIF1α transfected HCT116 cells. The format is cell-based, human. The protocol: (§3) HCT116 cells were transiently transfected with HA-HIF1α-pcDNA3 plasmid (Addgene, USA, Plasmid #18949) by using lipofectamineTM 2000 (Thermo Fisher Scientific, USA) according to the manufacturer’s instructions. After 24 h of transfection, those cells were subjected to various experiments.

The next series has as its system HIF1α, VEGFA, NF-ĸB. Nature of the series: Western blot of HIF1α, VEGFA and NF-ĸB in CES. The following applies: 24 h. The format is cell-based, human.
Series [3] concerns CES from HIF1α transfected HCT116 cells. Nature of the series: Diameter and number of CES from HIF1α transfected HCT116 cells. The format is cell-based, human. The protocol:
HCT116 CRC cells were grown in ultra-low attachment plate in 3dGRO™ Spheroid Medium (Sigma-Aldrich, USA) for 7 days. Spheroids enriched with CSCs were considered as CSC enriched spheres (CESs) or commonly referred as tumorospheres. After 7 days, tumorospheres were subjected to different treatments for 24 h, as per experimental protocol. Media of tumorospheres of all the treatment groups were collected, centrifuged to remove the cell debris and suspended spheres, supernatants were collected and vacuum concentrated. These supernatants were referred as conditioned medium (CM) and were stored at − 20 °C until use.
as §3

Series [4] deals with CD44+/CD133+ cell population in HIF1α transfected HCT116 derived tumorospheres. As to the kind of experiment: Flow cytometry of CD44+/CD133+ cells in CES from HIF1α transfected HCT116 cells. The format is cell-based, human. The settings on record: transfected control 28.9%. The procedure: as §3
Percentages of CD44^+/CD133^+ cell population were determined within tumorospheres and HIF1α positive cells were determined within the CD44^+/CD133^+ cell population using a flow cytometer (BD LSRFortessa™ X-20) and analyzed by BD FACSDiva™ software.

A short description of series [5]: Toxicity of Orientin alone in mice, 28 days. The format is in vivo, BALB/c mice. The protocol: as §2
Glutathione-S-transferase (GST), superoxide dismutase (SOD), Catalase (CAT), Glutathione peroxidase (GPx) and reduced glutathione (GSH) activity in hepatic tissue were assessed as described previously (Hajra et al. [2018b]). Values of all the parameters were calculated with respect to the amount of total protein present in liver homogenates.
as §1

Protocol for HIF1α, VEGFA, NF-ĸB: Cells were incubated with Brefeldin A (10 µg/ml) for 4 h before harvesting to determine VEGFA expression. Briefly, cells were lysed with RIPA buffer [50 mmol/L Tris–HCl (pH 7.8), 150 mmol/L NaCl, 1% Triton X-100, 0.1% SDS, 0.5% sodium deoxycholate, and 1 mmol/L EDTA] containing complete protease inhibitor cocktail. Equal amount of protein was electrophoresed on SDS-PAGE and electro transferred onto polyvinylidene difluoride (PVDF) membranes using Bio-Rad mini gel apparatus. The membranes were probed with OCT4 (Thermo Fisher Scientific, USA), SOX2 (AbCam, USA), NANOG (Thermo Fisher Scientific, USA), HIF1α (Thermo Fisher Scientific, USA) and VEGFA (Thermo Fisher Scientific, USA) and NF-ĸB (Santa Cruz Biotechnology, USA) antibodies. β-Actin (Santa Cruz Biotechnology, USA) and α-TUBULIN (Santa Cruz Biotechnology, USA) antibodies were used as loading control. Then, the blots were probed with HRP tagged secondary antibodies. Signals were detected with the ECL system (Promega, USA) and images were captured in iBright™ CL1500 Imaging System.

As to `O=c1[nH]cc(F)c(=O)[nH]1` [5FU, 5-Fluorouracil, reference compound], in series [1], the tumor volume result is “decrease in the tumor volume”, the tumor tissue histopathology result is “cell numbers were found to be reduced”, the “number of blood vessels in tumor tissue” value is listed as “increasing blood vessels number” and the “CD44+/CD133+ cells in tumor tissue” value was “increased”. Moreover, in [1], the “HIF1α and VEGFA expression in tumor” value was “increase”; the “survival (Kaplan Meier)” value was “increased life span”. For the same molecule, the “mRNA level of stemness maintenance factors (OCT4, NANOG, SOX2)” value in the series on OCT4, SOX2 and NANOG is recorded as “increased”. Besides, the “VEGFA secreted into CM of CES” value in the series on VEGFA is recorded as “stimulated”. In addition, in series [2], the ALP is reported as 168.44 ± 4.09 U/ml, the ALT worked out at 121.70 ± 3.95 U/ml, the AST is reported as 219.16 ± 2.83 U/ml and the BUN is 30.76 ± 0.46 mg/dL. In series [2], this molecule yielded a Creatinine of 0.73 ± 0.023 mg/dL.
Regarding `O=c1cc(-c2ccc(O)c(O)c2)oc2c([C@@H]3O[C@H](CO)[C@@H](O)[C@H](O)[C@H]3O)c(O)cc(O)c12` [Orientin], the “HIF1α and VEGFA expression by immunocytochemistry” value with HIF1α, VEGFA is recorded as “reduced”. In series [1], the tumor volume result was “decrease in the tumor volume”, the tumor tissue histopathology entry was “lost their compactness”, the “number of blood vessels in tumor tissue” value was “reduced” and the “CD44+/CD133+ cells in tumor tissue” value is on record as “reduction”. In series [1], the “HIF1α and VEGFA expression in tumor” value is “decreased”; the “survival (Kaplan Meier)” value is on record as “increased life span”. For the same molecule, the “mRNA level of stemness maintenance factors (OCT4, NANOG, SOX2)” value in the series on OCT4, SOX2 and NANOG is reported as “decreased”. Further, the NF-ĸB expression result in the series with HIF1α, VEGFA, NF-ĸB is listed as “downregulated”. Besides, in series [3], the diameter of spheres result is “decrease” and the number of spheres entry is reported as “decrease”. Further, the “CD44+/CD133+ cell population” value in series [4] was found to be 16.4%. Moreover, the “hepatic GSH and activity of GST, GPx, SOD and CAT” value in series [5] (5 mg/kg b.w Orientin i.v., 28 days) is reported as “increase”. Besides, the “hepatic LPO level” value in [5] (5 mg/kg b.w Orientin i.v., 28 days, vs control) is listed as “significantly decreased”. The “histopathology of liver, heart, lung and kidney” value in series [5] (5 mg/kg b.w Orientin, vs control) was “no histopathological changes”. In series [2], this molecule came in with an ALP of 94.23 ± 2.10 U/ml, an ALT of 49.08 ± 1.99 U/ml, an AST of 134.7 ± 2.00 U/ml and a BUN of 21.48 ± 0.53 mg/dL. This molecule showed a Creatinine in series [2] of 0.49 ± 0.020 mg/dL.
